# Assays:
# [1] = Tissue distribution of cephapirin activity after intravenous administration (agar well diffusion bioassay); format: in vivo, mice; conditions: 200 mg/kg intravenous; for concentration at 1 h / concentration at 3 h / concentration at 7 h / concentration at 10 h / concentration at 24 h: mouse
# Experimental: (§1) The antibacterial activity was measured by an agar well diffusion bioassay, though other assays for antibacterial activity or chemical, or immunological assays for the drug substance are known to those skilled in the art. Briefly, the agar well diffusion bioassay used here were performed by cutting wells into an agar such as Trypticaso Soy Agar (Difco., Detroit, MI) that were previously seeded with a test bacteria such as Bacillus subtilis (ATCC #6633). The wells were filled with a small amount of test material here about 50ul of the test sample, and the agar plates were incubated. Bacillus subtilis incubation was for about 16-24 hours at about 35°C. Growth of a bacterial "lawn" around the well was inhibited by antibiotic present in the agar as diffused from the test sample. The diameters of the zones of inhibited growth around the wells were proportional to the concentration of antibiotic in the test sample and were quantitated by comparison with known, standard antibiotic solutions.
# [2] = Serum levels of cephapirin activity after subcutaneous or intravenous administration; format: in vivo, mice
# Experimental: as §1
# Cephapirin activity in the serum of mice was determined at intervals after subcutaneous or intravenous administration of free or complexed drug. […] Maximal activity was found in the serum of mice given free cephapirin (by either route) at the earliest time points examined (one half to one hour post-injection). […] With a 200 mg/kg dose, serum levels were 10 ug/ml or greater for 24 hours after injection. […]
# S. aureus (ATCC #29740) [3] = assay: In vitro minimal inhibitory concentration by micro-titer dilution method; format: cell-based; conditions: Staphylococcus aureus, ATCC29740
# S. aureus (ATCC #29740) [4] = assay: Staphylococcal Abscess Model; format: in vivo, Mice (out-bred CD-1 males); conditions: single dose (200 mg/kg)
# Experimental: Staphylococcal Abscess Model. S. aureus (ATCC #29740) was grown overnight at 30°C in trypticase soy broth. Aliquots of this suspension were frozen at -70°C. […] For use, cultures were thawed and diluted with saline to contain the desired number of colony forming units (CFU) per ml. Mice (out-bred CD-1 males) were injected subcutaneously with 0.1 ml of S. aureus suspension in the abdominal area. Treatment with free or encapsulated drug was given before or after infection. At four days after infection, mice were killed by cervical dislocation, the abscesses were carefully dissected out and their diameters measured.
# To determine the effect of treatment on abscess development, mice were given a single intravenous or subcutaneous injection of free or complexed cephapirin at various times before or after injection.
# S. aureus = assay: Staphylococcal Septicemia Model; format: in vivo, Mice; conditions: for % Survival at 72 hours: 10 mice
# Experimental: Staphylococcal Septicemia Model. The S. aureus inoculum was prepared as for the abscess model. Mice were inoculated intraperitoneally with 2 x 10⁸ CFU in 5% hog/mucin. Treatment was given before or after infection. […]
# The effect of free and CHStris cephalosporin:lipid complex cephapirin was compared in an acute staphylococcus septicemia model.
# [5] = tested on: S. typhimurium (ATCC #14028); assay: Salmonella typhimurium Septicemia Model; format: in vivo, Mice; conditions: 700 CFU intravenously; treatment on days 2 and 4 post-inoculation; groups of 10
# Experimental: Salmonella typhimurium Septicemia Model: S. typhimurium (ATCC #14028) was grown in trypticase soy broth at 35°C overnight. Aliquots of this suspension were frozen and maintained at -70°C. For use, cultures were thawed and diluted to contain 700 CFU/ml in 0.9% saline. Mice were inoculated intravenously (0.1 ml) via the lateral tail vein. Treatment was given at various times after infection. Mortality was monitored daily for two weeks.
# Mice (in groups of 10) that were inoculated intravenously with 700 CFU of S. typhimurium and received no treatment died within 6-8 days after infection (Fig. 11). […] In this case, the cephalosporin:lipid complex preparation was not washed so that 30% of the administered dose was encapsulated.
# in vivo = conditions: mouse, iv, 924 mg/kg
# Experimental: Contrast agents were tested in mice by injecting a single intravenous dose of free or complexed contrast agent (diatrizoate) via the tail vein. […] The specific activity of the doses were about 10000 c/mg I.
# [6] = Serum levels of cefazolin after a single intravenous dose; format: in vivo, mice
# Experimental: as §1
# Both cephapirin and cefazolin display prolonged activity in serum and activity at a higher level by the cephalosporin:lipid complex preparation as compared to the free drug. […] Extended prophylactic activity in the serum can also be achieved by subcutaneous administration of a cephalosporin:lipid complex antibiotic.
# Intravenous injection of a single 100mg/kg dose of free cefazolin dosium in mice results in a mean serum concentration of 8 to 20ug/ml at one hour post dose (Fig. 9).
# [7] = tested on: many susceptible organisms; conditions: for many susceptible organisms; cited from earlier work
molecule,measurement,setting,value
"CC(=O)OCC1=C(C(=O)O)N2C(=O)[C@@H](NC(=O)CSc3ccncc3)[C@H]2SC1 [Free Cephapirin, cephapirin sodium]",activity in tissues,[1]; at 3 hours or later,No activity was detected
same,concentration at 1 h,"[1]; KIDNEY, time 1 (hours after injection), mean of 3 to 5 mice ± S.E.M.",49000 ± 8000 ng/g
same,concentration at 3 h,"[1]; KIDNEY, mean ± S.E.M.",< 500 ng/g
same,concentration at 7 h,"[1]; KIDNEY, mean ± S.E.M.",< 500 ng/g
same,concentration at 10 h,"[1]; KIDNEY, mean ± S.E.M.",< 500 ng/g
same,concentration at 24 h,"[1]; KIDNEY, mean ± S.E.M.",< 500 ng/g
same,concentration at 1 h,"[1]; LIVER, time 1, mean ± S.E.M.",46000 ± 12000 ng/g
same,concentration at 3 h,"[1]; LIVER, mean ± S.E.M.",< 500 ng/g
same,concentration at 7 h,"[1]; LIVER, mean ± S.E.M.",< 500 ng/g
same,concentration at 10 h,"[1]; LIVER, mean ± S.E.M.",< 500 ng/g
same,concentration at 24 h,"[1]; LIVER, mean ± S.E.M.",< 500 ng/g
same,concentration at 1 h,"[1]; SPLEEN, time 1, mean ± S.E.M.",< 500 ng/g
same,concentration at 3 h,"[1]; SPLEEN, mean ± S.E.M.",< 500 ng/g
same,concentration at 7 h,"[1]; SPLEEN, mean ± S.E.M.",< 500 ng/g
same,concentration at 10 h,"[1]; SPLEEN, mean ± S.E.M.",< 500 ng/g
same,concentration at 24 h,"[1]; SPLEEN, mean ± S.E.M.",< 500 ng/g
same,activity in the serum,[2]; at 3 hours or later,no activity was detectable
same,half-life of free drug,"[2]; serum, both intravenous and sub-cutaneous administration, estimated",approximately 20 minutes
same,MIC,S. aureus (ATCC #29740) [3],0.05 to 0.1 µg/mL
same,effect on abscess size,S. aureus (ATCC #29740) [4]; four hours before infection (complex: up to four hours before),no effect on abscess size
same,effect on abscess size,S. aureus (ATCC #29740) [4]; one hour after infection,significantly reduces or prevents abscess development
same,effect on abscess size,S. aureus (ATCC #29740) [4]; one hour before infection,reduced abscess size slightly
same,% Survival at 72 hours,"S. aureus; treated subcutaneously -1 hour, 50 mg/kg",100%
same,% Survival at 72 hours,"S. aureus; treated subcutaneously -1 hour, 100 mg/kg",100%
same,% Survival at 72 hours,"S. aureus; treated subcutaneously -1 hour, 200 mg/kg",100%
same,% Survival at 72 hours,"S. aureus; treated subcutaneously -4 hour, 50 mg/kg",0%
same,% Survival at 72 hours,"S. aureus; treated subcutaneously -4 hour, 100 mg/kg",10%
same,% Survival at 72 hours,"S. aureus; treated subcutaneously -4 hour, 200 mg/kg",0%
same,survival,"S. aureus; treated subcutaneously at one hour before infection, end of the experiment (14 days)",survived until the end of the experiment
same,survival,S. aureus; treatment at four hours before infection,no effect on survival
same,survival,[5],did not prolong survival
"CC(=O)Nc1c(I)c(NC(C)=O)c(I)c(C(=O)O)c1I [free diatrizoate, diatrizoate]",concentration at 0.5 h,in vivo,2.8e+06 ng/g
same,concentration at 1 h,in vivo,800000 ng/g
same,concentration at 1.5 h,in vivo,300000 ng/g
cefazolin sodium [free cefazolin],mean serum concentration,"[6]; mouse, in vivo, iv, 100 mg/kg, 1 h",8000 to 20000 ng/mL
same,serum level,"[6]; mouse, in vivo, iv, 100 mg/kg, 2 h",approximately 2 ug/ml
same,serum level,"[6]; single 100mg/kg intravenous dose, at 3 hours after administration",below the level of detection
same,MICp,[7],about 0.5 ug (base weight)/ml (plasma or serum)
same,MICt,[7],about 0.5 ug (base weight)/mg (spleen)
